Results: PubChem BioAssay AID248 (DTP/NCI, 2004)
Inconclusive results and toxic doses are left out. Rule as the data show it: active = T/C of 150% or more; inactive = T/C below 125%.

System: L1210 leukemia ip in BDF1 mice, survival T/C
Assay: NCI In Vivo Anticancer Drug Screen. Data for tumor model L1210 Leukemia (intraperitoneal) in B6D2F1 (BDF1) mice
Details: endpoint: mean survival time, higher = longer survival
In short: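 Transplanted-tumor mice were given test agent; controls received vehicle only. Survival readings from the two groups were divided (treated over control).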

[1] = dose: 100.0 mg/kg/injection, schedule: Q04DX002 (ip), vehicle: Klucel (hydroxypropylcellulose) (HPC)
[2] = dose: 200.0 mg/kg/injection, schedule: Q04DX002 (ip), vehicle: Klucel (hydroxypropylcellulose) (HPC)
[3] = dose: 400.0 mg/kg/injection, schedule: Q04DX002 (ip), vehicle: Klucel (hydroxypropylcellulose) (HPC)
[4] = dose: 100.0 mg/kg/injection, schedule: Q04DX002 (ip), vehicle: saline with Tween-80
[5] = dose: 200.0 mg/kg/injection, schedule: Q04DX002 (ip), vehicle: saline with Tween-80
[6] = dose: 400.0 mg/kg/injection, schedule: Q04DX002 (ip), vehicle: saline with Tween-80
[7] = dose: 100.0 mg/kg/injection, schedule: Q01DX009 (ip), vehicle: Klucel (hydroxypropylcellulose) (HPC)
[8] = dose: 200.0 mg/kg/injection, schedule: Q01DX009 (ip), vehicle: Klucel (hydroxypropylcellulose) (HPC)
[9] = dose: 400.0 mg/kg/injection, schedule: Q01DX009 (ip), vehicle: Klucel (hydroxypropylcellulose) (HPC)
[10] = dose: 100.0 mg/kg/injection, schedule: Q01DX009 (ip), vehicle: saline with Tween-80
[11] = dose: 200.0 mg/kg/injection, schedule: Q01DX009 (ip), vehicle: saline with Tween-80
[12] = dose: 100.0 mg/kg/injection, schedule: Q04DX003 (ip), vehicle: Klucel (hydroxypropylcellulose) (HPC)
[13] = dose: 200.0 mg/kg/injection, schedule: Q04DX003 (ip), vehicle: Klucel (hydroxypropylcellulose) (HPC)
[14] = dose: 400.0 mg/kg/injection, schedule: Q04DX003 (ip), vehicle: Klucel (hydroxypropylcellulose) (HPC)
[15] = dose: 100.0 mg/kg/injection, schedule: Q04DX003 (ip), vehicle: saline with Tween-80
[16] = dose: 200.0 mg/kg/injection, schedule: Q04DX003 (ip), vehicle: saline with Tween-80
[17] = dose: 400.0 mg/kg/injection, schedule: Q01DX009 (ip), vehicle: saline with Tween-80
[18] = dose: 400.0 mg/kg/injection, schedule: Q04DX003 (ip), vehicle: saline with Tween-80
[19] = dose: 50.0 mg/kg/injection, schedule: Q01DX009 (ip), vehicle: Klucel (hydroxypropylcellulose) (HPC)

Measured: T/C

CC(=O)OCC(OC(C)=O)C(OC(C)=O)C(OC(C)=O)C(COC(=O)c1ccccc1)OC(=O)c1ccccc1 (stereo not given)
inactive: dose: 100.0 mg/kg/injection, schedule: Q01DX001 (ip), vehicle: saline with Tween-80 108 % of control | dose: 200.0 mg/kg/injection, schedule: Q01DX001 (ip), vehicle: saline with Tween-80 89 % of control | dose: 400.0 mg/kg/injection, schedule: Q01DX001 (ip), vehicle: saline with Tween-80 104 % of control

O=C(COc1ccc(F)cc1F)Oc1ccc([N+](=O)[O-])cc1
inactive: [1] 101 % of control | [2] 104 % of control | [3] 97 % of control

N#CCCNC(CO)C(=O)O (stereo not given)
inactive: dose: 100.0 mg/kg/injection, schedule: Q01DX001 (ip), vehicle: carboxymethylcellulose (CMC) 94 % of control | dose: 200.0 mg/kg/injection, schedule: Q01DX001 (ip), vehicle: carboxymethylcellulose (CMC) 92 % of control | dose: 400.0 mg/kg/injection, schedule: Q01DX001 (ip), vehicle: carboxymethylcellulose (CMC) 89 % of control

O=C(O)c1ccc(Br)o1
inactive: [4] 104 % of control | [5] 97 % of control | [6] 95 % of control

CC(=O)NNC(N)=S
inactive: [1] 87 % of control | [2] 87 % of control | [3] 97 % of control

N#C/C(=C\c1cccs1)c1ccc([N+](=O)[O-])cc1
inactive: [7] 96 % of control | [8] 86 % of control | [9] 91 % of control

ClC12C3CCCC1CCCC2CCC3 (stereo not given)
inactive: dose: 100.0 mg/kg/injection, schedule: Q04DX003 (ip), vehicle: other 117 % of control | dose: 200.0 mg/kg/injection, schedule: Q04DX003 (ip), vehicle: other 104 % of control | dose: 400.0 mg/kg/injection, schedule: Q04DX003 (ip), vehicle: other 104 % of control

CCCCCCCCC(C(=O)c1ccccc1)C(O)(C(F)(F)F)C(F)(F)F (stereo not given)
inactive: [10] 100 % of control | [11] 106 % of control

O=c1[nH]cc(CCc2ccccc2)c(=O)[nH]1
inactive: [7] 105 % of control | [12] 94 % of control | [8] 96 % of control | [13] 94 % of control | [9] 98 % of control | [14] 93 % of control

CC(=O)n1ncc2ccc(N)cc21
inactive: dose: 25.0 mg/kg/injection, schedule: Q01DX009 (ip), vehicle: water 89 % of control | dose: 50.0 mg/kg/injection, schedule: Q01DX009 (ip), vehicle: water 101 % of control | dose: 100.0 mg/kg/injection, schedule: Q01DX009 (ip), vehicle: water 96 % of control | dose: 100.0 mg/kg/injection, schedule: Q04DX003 (ip), vehicle: water 100 % of control | dose: 200.0 mg/kg/injection, schedule: Q04DX003 (ip), vehicle: water 96 % of control

COc1c(C(C)(C)C)cc([N+](=O)[O-])c(C)c1[N+](=O)[O-]
inactive: [7] 98 % of control | [12] 103 % of control | [8] 103 % of control | [13] 102 % of control | [9] 96 % of control | [14] 94 % of control

CC(=C(C#N)C#N)c1ccccc1
inactive: dose: 12.5 mg/kg/injection, schedule: Q04DX003 (ip), vehicle: saline with Tween-80 95 % of control | dose: 25.0 mg/kg/injection, schedule: Q04DX003 (ip), vehicle: saline with Tween-80 94 % of control | dose: 50.0 mg/kg/injection, schedule: Q04DX003 (ip), vehicle: saline with Tween-80 89 % of control

Cc1ccc(S(=O)(=O)N/N=C/c2cccs2)cc1
inactive: [10] 90 % of control | [15] 98 % of control | [11] 88 % of control | [16] 98 % of control | [17] 91 % of control | [18] 109 % of control

N=C(N)CNC(=O)c1ccccc1C(=O)O
inactive: dose: 19.0 mg/kg/injection, schedule: Q01DX009 (ip), vehicle: saline 100 % of control | dose: 38.0 mg/kg/injection, schedule: Q01DX009 (ip), vehicle: saline 92 % of control | dose: 75.0 mg/kg/injection, schedule: Q01DX001 (ip), vehicle: saline 103 % of control | dose: 75.0 mg/kg/injection, schedule: Q01DX009 (ip), vehicle: saline 96 % of control | dose: 150.0 mg/kg/injection, schedule: Q01DX001 (ip), vehicle: saline 107 % of control | dose: 150.0 mg/kg/injection, schedule: Q01DX009 (ip), vehicle: saline 100 % of control | dose: 300.0 mg/kg/injection, schedule: Q01DX001 (ip), vehicle: saline 92 % of control

CC1(C)N=C(N)N=C(N)N1c1cccc(Cl)c1
inactive: dose: 1.15 mg/kg/injection, schedule: Q01DX Z (ip), vehicle: carboxymethylcellulose (CMC) 98 % of control | dose: 2.3 mg/kg/injection, schedule: Q01DX Z (ip), vehicle: carboxymethylcellulose (CMC) 97 % of control | dose: 2.5 mg/kg/injection, schedule: Q01DX015 (ip), vehicle: saline 111 % of control | dose: 4.6 mg/kg/injection, schedule: Q01DX Z (ip), vehicle: carboxymethylcellulose (CMC) 117 % of control | dose: 5.0 mg/kg/injection, schedule: Q01DX015 (ip), vehicle: saline 114 % of control | dose: 9.2 mg/kg/injection, schedule: Q01DX Z (ip), vehicle: carboxymethylcellulose (CMC) 108 % of control | dose: 10.0 mg/kg/injection, schedule: Q01DX015 (ip), vehicle: saline 119 % of control | dose: 40.0 mg/kg/injection, schedule: Q01DX015 (ip), vehicle: saline 114 % of control | dose: 75.0 mg/kg/injection, schedule: Q01DX001 (ip), vehicle: acetone 111 % of control

CCOC(=O)CNc1ccc(C)c(C)c1
inactive: [1] 95 % of control | [2] 109 % of control | [3] 104 % of control

Oc1c(Br)cc(Br)cc1/C=C/NC(=S)NC1CC2CC1C1C=CCC21 (stereo not given)
inactive: [7] 105 % of control | [8] 94 % of control | [9] 97 % of control

COc1ccc(C(CC(=O)c2ccccc2)Sc2ccccc2N)cc1OC (stereo not given)
inactive: [19] 97 % of control | dose: 100.0 mg/kg/injection, schedule: Q01DX005 (ip), vehicle: Klucel (hydroxypropylcellulose) (HPC) 101 % of control | [7] 94 % of control | [4] 98 % of control | dose: 200.0 mg/kg/injection, schedule: Q01DX005 (ip), vehicle: Klucel (hydroxypropylcellulose) (HPC) 108 % of control | [8] 94 % of control | [5] 106 % of control | [6] 113 % of control

N#C/C(=C\c1cccc2ccccc12)c1ccc(Cl)cc1
inactive: dose: 87.5 mg/kg/injection, schedule: Q01DX009 (ip), vehicle: Klucel (hydroxypropylcellulose) (HPC) 95 % of control | dose: 175.0 mg/kg/injection, schedule: Q01DX009 (ip), vehicle: Klucel (hydroxypropylcellulose) (HPC) 96 % of control | dose: 350.0 mg/kg/injection, schedule: Q01DX009 (ip), vehicle: Klucel (hydroxypropylcellulose) (HPC) 97 % of control

c1ccc([P+](Cc2nc3ccccc3[nH]2)(c2ccccc2)c2ccccc2)cc1
inactive: dose: 25.0 mg/kg/injection, schedule: Q01DX009 (ip), vehicle: saline 92 % of control | dose: 25.0 mg/kg/injection, schedule: Q04DX003 (ip), vehicle: saline 97 % of control | [19] 102 % of control | dose: 50.0 mg/kg/injection, schedule: Q04DX003 (ip), vehicle: saline 92 % of control | [7] 100 % of control | dose: 100.0 mg/kg/injection, schedule: Q04DX003 (ip), vehicle: saline 94 % of control

CCCCCCc1ccccc1
inactive: [10] 98 % of control | [15] 105 % of control | [11] 98 % of control | [16] 94 % of control | [17] 88 % of control | [18] 95 % of control

COc1cccc(C(N)=O)c1
inactive: [1] 97 % of control | [2] 97 % of control | [3] 104 % of control

Cc1nc(N)[nH]c(=O)c1CCCN=Cc1ccc([N+](=O)[O-])cc1
inactive: dose: 18.75 mg/kg/injection, schedule: Q01DX001 (ip), vehicle: Klucel (hydroxypropylcellulose) (HPC) 95 % of control | dose: 37.5 mg/kg/injection, schedule: Q01DX001 (ip), vehicle: Klucel (hydroxypropylcellulose) (HPC) 101 % of control | dose: 75.0 mg/kg/injection, schedule: Q01DX001 (ip), vehicle: Klucel (hydroxypropylcellulose) (HPC) 101 % of control
